Measured values reported in PMC9090415, “Discovery of small molecule inhibitors of Plasmodium falciparum apicoplast DNA polymerase” (Journal of Enzyme Inhibition and Medicinal Chemistry, 2022).

Target: P. falciparum apicoplast DNA polymerase (Pf-apPOL) (Plasmodium falciparum, UniProt Q8ILY1)
Assay: Fluorescence-based high-throughput DNA polymerase assay (molecular beacon), primary screen and dose-response
Type: biochemical
Conditions: for DNA Pol: 90 min, 10 µM; for % inhibition apPOL 180' 2.5 / % inhibition apPOL 180' 5 / % inhibition apPOL 180' 10 / % inhibition apPOL 180' 20 / % inhibition apPOL 180' 40 / % inhibition apPOL 180' 80: read at 180'
In short: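 Single-point screening used 10 µM compound with 20 nM polymerase, 20 nM hairpin substrate and 6 µM dNTPs for 90 min at 25 °C. Confirmatory titrations (2.5–80 µM) followed fluorescence at three times, and IC50 was derived from a fit including a cooperativity term n.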

[1] = "DNA Pol" of the 186 hits list (screen value)

Chain of P. falciparum apicoplast DNA polymerase (Pf-apPOL) (Q8ILY1 entry or part of it): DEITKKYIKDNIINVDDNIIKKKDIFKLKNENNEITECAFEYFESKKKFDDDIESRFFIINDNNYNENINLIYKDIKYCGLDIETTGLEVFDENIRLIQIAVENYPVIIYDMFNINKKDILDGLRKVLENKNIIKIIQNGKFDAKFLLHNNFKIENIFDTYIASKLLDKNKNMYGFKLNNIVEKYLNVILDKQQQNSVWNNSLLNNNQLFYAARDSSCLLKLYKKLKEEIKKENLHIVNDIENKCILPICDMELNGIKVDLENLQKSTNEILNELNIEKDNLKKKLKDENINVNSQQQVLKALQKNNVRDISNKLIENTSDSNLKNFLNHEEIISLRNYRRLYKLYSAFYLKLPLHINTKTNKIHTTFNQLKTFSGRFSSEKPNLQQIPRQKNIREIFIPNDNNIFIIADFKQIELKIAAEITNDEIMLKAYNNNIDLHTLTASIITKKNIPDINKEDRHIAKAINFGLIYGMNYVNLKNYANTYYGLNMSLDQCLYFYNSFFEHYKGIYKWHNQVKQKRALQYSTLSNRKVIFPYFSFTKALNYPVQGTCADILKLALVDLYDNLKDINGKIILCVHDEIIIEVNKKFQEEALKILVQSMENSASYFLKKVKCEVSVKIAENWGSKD

Structure (SMILES): CN(C)S(=O)(=O)Oc1ccc(-c2noc(-c3ccc(Oc4cc(Cl)cc(Cl)c4)o3)n2)cc1 [KU0263859]
- DNA Pol [1]: 81
- % inhibition Apo pol 10' (DRC-1, concentration 2.5): 3.819%
- % inhibition Apo pol 10' (DRC-1, concentration 5): 17.153%
- % inhibition Apo pol 10' (DRC-1, concentration 10): 39.7031%
- % inhibition Apo pol 10' (DRC-1, concentration 20): 66.3992%
- % inhibition Apo pol 10' (DRC-1, concentration 40): 79.6706%
- % inhibition Apo pol 10' (DRC-1, concentration 80): 81.4369%
- % inhibition Apol 90' (DRC-1, concentration 2.5): 1.99%
- % inhibition Apol 90' (DRC-1, concentration 5): 7.942%
- % inhibition Apol 90' (DRC-1, concentration 10): 26.2984%
- % inhibition Apol 90' (DRC-1, concentration 20): 55.9318%
- % inhibition Apol 90' (DRC-1, concentration 40): 71.2326%
- % inhibition Apol 90' (DRC-1, concentration 80): 82.3525%
- % inhibition apPOL 180' (DRC-1, concentration 2.5): 0.6453%
- % inhibition apPOL 180' (DRC-1, concentration 5): 1.378%
- % inhibition apPOL 180' (DRC-1, concentration 10): 13.3092%
- % inhibition apPOL 180' (DRC-1, concentration 20): 44.3234%
- % inhibition apPOL 180' (DRC-1, concentration 40): 58.5688%
- % inhibition apPOL 180' (DRC-1, concentration 80): 76.7438%
- % inhibition Apo pol 5' (DRC-2, concentration 2.5): 2.6%
- % inhibition Apo pol 5' (DRC-2, concentration 5): 18%
- % inhibition Apo pol 5' (DRC-2, concentration 10): 34%
- % inhibition Apo pol 5' (DRC-2, concentration 20): 47%
- % inhibition Apo pol 5' (DRC-2, concentration 40): 47%
- % inhibition Apo pol 5' (DRC-2, concentration 80): 46%
- % inhibition Apol 40' (DRC-2, concentration 2.5): 3%
- % inhibition Apol 40' (DRC-2, concentration 5): 16%
- % inhibition Apol 40' (DRC-2, concentration 10): 36%
- % inhibition Apol 40' (DRC-2, concentration 20): 57%
- % inhibition Apol 40' (DRC-2, concentration 40): 65%
- % inhibition Apol 40' (DRC-2, concentration 80): 68%
- % inhibition ApPOL 90' (DRC-2, concentration 2.5): 0.164%
- % inhibition ApPOL 90' (DRC-2, concentration 5): 12%
- % inhibition ApPOL 90' (DRC-2, concentration 10): 32%
- % inhibition ApPOL 90' (DRC-2, concentration 20): 56%
- % inhibition ApPOL 90' (DRC-2, concentration 40): 67%
- % inhibition ApPOL 90' (DRC-2, concentration 80): 73%
- % inhibition apPOL 180' (DRC-2, concentration 2.5): -5.61%
- % inhibition apPOL 180' (DRC-2, concentration 5): 5.64%
- % inhibition apPOL 180' (DRC-2, concentration 10): 20%
- % inhibition apPOL 180' (DRC-2, concentration 20): 47%
- % inhibition apPOL 180' (DRC-2, concentration 40): 65%
- % inhibition apPOL 180' (DRC-2, concentration 80): 76%
- DNA Pol (primary screen value, DNA Pol): 81

Structure (SMILES): N#CC(=NNc1cc(C(F)(F)F)cc(C(F)(F)F)c1)C(=O)c1ccco1 [KU0264276]
- DNA Pol [1]: 81
- % inhibition Apo pol 10' (DRC-1, concentration 2.5): 7.413%
- % inhibition Apo pol 10' (DRC-1, concentration 5): 17.153%
- % inhibition Apo pol 10' (DRC-1, concentration 10): 33.1185%
- % inhibition Apo pol 10' (DRC-1, concentration 20): 55.9301%
- % inhibition Apo pol 10' (DRC-1, concentration 40): 90.9847%
- % inhibition Apo pol 10' (DRC-1, concentration 80): 81.2188%
- % inhibition Apol 90' (DRC-1, concentration 2.5): 13.8039%
- % inhibition Apol 90' (DRC-1, concentration 5): 15.4083%
- % inhibition Apol 90' (DRC-1, concentration 10): 41.225%
- % inhibition Apol 90' (DRC-1, concentration 20): 52.5694%
- % inhibition Apol 90' (DRC-1, concentration 40): 86.2656%
- % inhibition Apol 90' (DRC-1, concentration 80): 77.3906%
- % inhibition apPOL 180' (DRC-1, concentration 2.5): 13.2581%
- % inhibition apPOL 180' (DRC-1, concentration 5): 8.8259%
- % inhibition apPOL 180' (DRC-1, concentration 10): 37.6364%
- % inhibition apPOL 180' (DRC-1, concentration 20): 41.4937%
- % inhibition apPOL 180' (DRC-1, concentration 40): 81.9249%
- % inhibition apPOL 180' (DRC-1, concentration 80): 71.4519%
- % inhibition Apo pol 5' (DRC-2, concentration 2.5): 6%
- % inhibition Apo pol 5' (DRC-2, concentration 5): 12%
- % inhibition Apo pol 5' (DRC-2, concentration 10): 27%
- % inhibition Apo pol 5' (DRC-2, concentration 20): 47%
- % inhibition Apo pol 5' (DRC-2, concentration 40): 57%
- % inhibition Apo pol 5' (DRC-2, concentration 80): 58%
- % inhibition Apol 40' (DRC-2, concentration 2.5): 8%
- % inhibition Apol 40' (DRC-2, concentration 5): 15%
- % inhibition Apol 40' (DRC-2, concentration 10): 34%
- % inhibition Apol 40' (DRC-2, concentration 20): 59%
- % inhibition Apol 40' (DRC-2, concentration 40): 69%
- % inhibition Apol 40' (DRC-2, concentration 80): 72%
- % inhibition ApPOL 90' (DRC-2, concentration 2.5): 4.34%
- % inhibition ApPOL 90' (DRC-2, concentration 5): 14%
- % inhibition ApPOL 90' (DRC-2, concentration 10): 32%
- % inhibition ApPOL 90' (DRC-2, concentration 20): 59%
- % inhibition ApPOL 90' (DRC-2, concentration 40): 71%
- % inhibition ApPOL 90' (DRC-2, concentration 80): 74%
- % inhibition apPOL 180' (DRC-2, concentration 2.5): -0.774%
- % inhibition apPOL 180' (DRC-2, concentration 5): 4.73%
- % inhibition apPOL 180' (DRC-2, concentration 10): 22%
- % inhibition apPOL 180' (DRC-2, concentration 20): 52%
- % inhibition apPOL 180' (DRC-2, concentration 40): 67%
- % inhibition apPOL 180' (DRC-2, concentration 80): 74%
- DNA Pol (primary screen value, DNA Pol): 81

Structure (SMILES): Cc1cccc(-c2noc(C(=O)NNC(=O)C(Cl)(Cl)Cl)n2)c1 [KU0266208]
- DNA Pol (186 hits, DNA Pol (screen value), unit not given): 74
- DNA Pol ('DNA Pol' (screen value), unit not given): 74
- % inhibition Apo pol 10' 2.5 (DRC-1, read at 10', concentration 2.5): 9.201%
- % inhibition Apo pol 10' 5 (DRC-1, read at 10', concentration 5): 9.396%
- % inhibition Apo pol 10' 10 (DRC-1, read at 10', concentration 10): 14.6387%
- % inhibition Apo pol 10' 20 (DRC-1, read at 10', concentration 20): 23.1394%
- % inhibition Apo pol 10' 40 (DRC-1, read at 10', concentration 40): 47.3506%
- % inhibition Apo pol 10' 80 (DRC-1, read at 10', concentration 80): 74.0124%
- % inhibition Apol 90' 2.5 (DRC-1, read at 90', concentration 2.5): -1.588%
- % inhibition Apol 90' 5 (DRC-1, read at 90', concentration 5): -0.4833%
- % inhibition Apol 90' 10 (DRC-1, read at 90', concentration 10): 4.634%
- % inhibition Apol 90' 20 (DRC-1, read at 90', concentration 20): 14.9894%
- % inhibition Apol 90' 40 (DRC-1, read at 90', concentration 40): 39.8547%
- % inhibition Apol 90' 80 (DRC-1, read at 90', concentration 80): 66.9528%
- % inhibition apPOL 180' 2.5 (DRC-1, concentration 2.5): -5.775%
- % inhibition apPOL 180' 5 (DRC-1, concentration 5): -5.2438%
- % inhibition apPOL 180' 10 (DRC-1, concentration 10): -0.4994%
- % inhibition apPOL 180' 20 (DRC-1, concentration 20): 8.812%
- % inhibition apPOL 180' 40 (DRC-1, concentration 40): 34.7216%
- % inhibition apPOL 180' 80 (DRC-1, concentration 80): 64.1117%
- % inhibition Apo pol 5' (DRC-2, concentration 10): 11%
- % inhibition Apol 40' (DRC-2, concentration 10): 11%
- % inhibition Apol 40' (DRC-2, concentration 20): 24%
- % inhibition ApPOL 90' (DRC-2, concentration 20): 24%
- % inhibition Apo pol 5' 2.5 (DRC-2, read at 5', concentration 2.5): 4.48%
- % inhibition Apo pol 5' 5 (DRC-2, read at 5', concentration 5): 5.63%
- % inhibition Apo pol 5' 10 (DRC-2, read at 5', concentration 10): 11%
- % inhibition Apo pol 5' 20 (DRC-2, read at 5', concentration 20): 21%
- % inhibition Apo pol 5' 40 (DRC-2, read at 5', concentration 40): 36%
- % inhibition Apo pol 5' 80 (DRC-2, read at 5', concentration 80): 49%
- % inhibition Apol 40' 2.5 (DRC-2, read at 40', concentration 2.5): 4.33%
- % inhibition Apol 40' 5 (DRC-2, read at 40', concentration 5): 4.64%
- % inhibition Apol 40' 10 (DRC-2, read at 40', concentration 10): 11%
- % inhibition Apol 40' 20 (DRC-2, read at 40', concentration 20): 24%
- % inhibition Apol 40' 40 (DRC-2, read at 40', concentration 40): 44%
- % inhibition Apol 40' 80 (DRC-2, read at 40', concentration 80): 58%
- % inhibition ApPOL 90' 2.5 (DRC-2, read at 90', concentration 2.5): 3%
- % inhibition ApPOL 90' 5 (DRC-2, read at 90', concentration 5): 2.46%
- % inhibition ApPOL 90' 10 (DRC-2, read at 90', concentration 10): 10%
- % inhibition ApPOL 90' 20 (DRC-2, read at 90', concentration 20): 24%
- % inhibition ApPOL 90' 40 (DRC-2, read at 90', concentration 40): 45%
- % inhibition ApPOL 90' 80 (DRC-2, read at 90', concentration 80): 60%
- % inhibition apPOL 180' 2.5 (DRC-2, concentration 2.5): -1%
- % inhibition apPOL 180' 5 (DRC-2, concentration 5): 1.1%
- % inhibition apPOL 180' 10 (DRC-2, concentration 10): 5.71%
- % inhibition apPOL 180' 20 (DRC-2, concentration 20): 20%
- % inhibition apPOL 180' 40 (DRC-2, concentration 40): 42%
- % inhibition apPOL 180' 80 (DRC-2, concentration 80): 59%
